Measured values published in ChEMBL document CHEMBL5247581, “Design, synthesis and biological evaluation of new quinazolinone-benzopyran-indole hybrid compounds promoting osteogenesis through BMP2 upregulation” (Eur J Med Chem, 2022).
The source made the active and inactive calls. No cut-off for these calls is given here.

How the values were obtained:
[1] = test system: Calvarial osteoblast; assay: Induction of osteogenesis in mouse Osteoblast cells assessed as ALP activity at 10 nM measured for 24 to 48 hrs; format: functional, cell-based; details: time 24-48 hrs
[2] = test system: Calvarial osteoblast; assay: Induction of osteogenesis in mouse Osteoblast cells assessed as ALP activity at 100 to 1000000 pM measured for 24 to 48 hrs; format: functional, cell-based; details: dose 100-1e+06 pM, time 24-48 hrs
[3] = test system: Calvarial osteoblast; assay: Induction of osteogenesis in mouse Osteoblast cells assessed as ALP activity at 1 to 1000 pM measured for 24 to 48 hrs; format: functional, cell-based; details: dose 1-1000 pM, time 24-48 hrs
[4] = test system: Calvarial osteoblast; assay: Induction of osteogenesis in mouse Osteoblast cells assessed as ALP activity at 0.001 to 100 uM measured for 24 to 48 hrs; format: functional; details: dose 0.001-100 µM, time 24-48 hrs
[5] = test system: Calvarial osteoblast; assay: Induction of osteogenesis in mouse Osteoblast cells assessed as ALP activity at 0.001 to 100 uM measured for 48 hrs; format: functional, cell-based; details: dose 0.001-100 µM
[6] = test system: Calvarial osteoblast; assay: Induction of osteoblast differentiation in mouse calvarial osteoblasts cells assessed as ALP activity at 1 to 10000 pM measured for 7 days; format: functional, cell-based; details: dose 1-10000 pM, time 7.0 day
[7] = test system: Calvarial osteoblast; assay: Induction of osteogenesis in mouse Osteoblast cells assessed as ALP activity at 100 pM measured for 48 hrs; format: functional, cell-based
[8] = test system: Calvarial osteoblast; assay: Cytotoxicity against mouse Osteoblast cells assessed as reduction in cell viability at 100 uM measured for 24 to 48 hrs by MTT assay; format: toxicity, cell-based; details: time 24-48 hrs
[9] = test system: Calvarial osteoblast; assay: Cytotoxicity against mouse Osteoblast cells assessed as reduction in cell viability at 0.000001 to 1 uM measured for 24 to 48 hrs by MTT assay; format: toxicity, cell-based; details: dose lower 1e-06 µM, time lower 24 hrs, dose upper 1 µM, time upper 48 hrs
[10] = test system: Calvarial osteoblast; assay: Induction of osteogenesis in mouse Osteoblast cells assessed as ALP activity at 0.001 to 100 uM measured for 24 hrs; format: functional, cell-based; details: dose 0.001-100 µM

Q: With `Cc1cc2ccccc2[nH]1` as the compound, how does the Activity [1] read?
A: The Activity was “inactive”.

Q: What about the Activity [2] of the same compound?
A: Its Activity is “inactive”.

Q: What about the Activity [3] of the same compound?
A: The Activity was “inactive”.

Q: And the Activity [4]?
A: The Activity was “inactive”.

Q: Which Activity [4] does the source give for `CCCc1cc(-c2nc3ccccc3c(=O)n2C)cc2c1OC(N)=C(C#N)C2c1c(C)[nH]c2ccccc12` (stereo not given) here?
A: The Activity was “inactive”.

Q: With `CCn1c(-c2cc(C(C)C)c3c(c2)C(c2c(C)[nH]c4ccccc24)C(C#N)=C(N)O3)nc2ccccc2c1=O` (stereo not given) as the compound, how does the Activity [4] read?
A: The Activity was 6%.

Q: With `CCCc1cc(-c2nc3ccccc3c(=O)n2CC)cc2c1OC(N)=C(C#N)C2c1c(C)[nH]c2ccccc12` (stereo not given) as the compound, how does the Activity [4] read?
A: Its Activity is 12%.

Q: For `CCn1c(-c2cc(C)c3c(c2)CC(C#N)=C(N)O3)nc2ccccc2c1=O`, which Activity [1] is on record?
A: Its Activity is “inactive”.

Q: What about the Activity [3] of the same compound?
A: The Activity was “inactive”.

Q: And the Activity [4]?
A: The Activity was “inactive”.

Q: How did the Activity [4] turn out when `Cc1cc(-c2nc3ccccc3c(=O)n2C)cc2c1OC(N)=C(C#N)C2c1c(C)[nH]c2ccccc12` (stereo not given) was run?
A: The Activity was “inactive”.

Q: Which Activity [4] does the source give for `CCc1cc(-c2nc3ccccc3c(=O)n2C)cc2c1OC(N)=C(C#N)C2c1c(C)[nH]c2ccccc12` (stereo not given) here?
A: Its Activity is 7%.

Q: `Cc1cc(-c2nc3ccccc3c(=O)n2C)cc2c1OC(N)=C(C#N)C2c1c(C)[nH]c2ccc(Cl)cc12` (stereo not given) was tested. Which Activity [5] did it give?
A: Its Activity is “Active”.

Q: And the Activity [6]?
A: The Activity was “inactive”.

Q: And the Activity [7]?
A: The Activity was “Active”.

Q: And the Activity [8]?
A: The Activity was “Toxic”.

Q: And the Activity [9]?
A: Its Activity is “Non-Toxic”.

Q: And the Activity [10]?
A: The Activity was “inactive”.

Q: And the Activity [4]?
A: The Activity was 25%.

Q: With `COc1ccc2[nH]c(C)c(C3C(C#N)=C(N)Oc4c3cc(-c3nc5ccccc5c(=O)[nH]3)cc4C(C)(C)C)c2c1` (stereo not given) as the compound, how does the Activity [4] read?
A: Its Activity is “inactive”.

Q: Which Activity [4] does the source give for `Cc1[nH]c2ccccc2c1C1C(C#N)=C(N)Oc2c1cc(-c1nc3ccccc3c(=O)[nH]1)cc2C(C)(C)C` (stereo not given) here?
A: The Activity was “inactive”.

Q: For `CCc1cc(-c2nc3ccccc3c(=O)[nH]2)cc2c1OC(N)=C(C#N)C2c1c(C)[nH]c2ccccc12` (stereo not given), which Activity [4] is on record?
A: The Activity was “inactive”.

Q: How did the Activity [4] turn out when `N#CC1=Cc2ccccc2OC1N` (stereo not given) was run?
A: Its Activity is 18%.

Q: How did the Activity [4] turn out when `CCc1cc(-c2nc3ccccc3c(=O)n2C)cc2c1OC(N)=C(C#N)C2c1c(C)[nH]c2ccc(Cl)cc12` (stereo not given) was run?
A: Its Activity is 1%.

Q: Which Activity [4] does the source give for `Cc1[nH]c2ccccc2c1C1C(C#N)=C(N)Oc2c(C(C)C)cc(-c3nc4ccccc4c(=O)n3C)cc21` (stereo not given) here?
A: Its Activity is 1%.

Q: `Cc1[nH]c2ccc(Cl)cc2c1C1C(C#N)=C(N)Oc2c1cc(-c1nc3ccccc3c(=O)[nH]1)cc2C(C)(C)C` (stereo not given) was tested. Which Activity [4] did it give?
A: Its Activity is 2%.

Q: Which results are given for `CCn1c(C)nc2ccccc2c1=O`?
A: Activity [1]: inactive; Activity [2]: inactive; Activity [3]: inactive; Activity [4]: 1%
